# Test results published in article PMC12951562, “SH2scan: Mapping SH2 Domain-Ligand Binding Selectivity for Inhibitors and Degraders” (Journal of Medicinal Chemistry, 2026).
# Non-standard residues stand in square brackets, D forms with d. Residues, ends and D or L forms follow the SMILES beside them. pY = N[C@@H](Cc1ccc(OP(=O)(O)O)cc1)C(=O)O
# What was measured:
# Test in all cases: biochemical
# Assay type in all cases: binding
# GRB14 = target: T1, GRB14 (Homo sapiens, UniProt Q14449)
# T1 construct: the DNA-tagged SH2 domain concentrations used in this study were <0.1 nM; made in house; host or cells: HEK293 (transient transfection; unpurified extract)
# T1 sequence (Q14449 439-535 limits assumed): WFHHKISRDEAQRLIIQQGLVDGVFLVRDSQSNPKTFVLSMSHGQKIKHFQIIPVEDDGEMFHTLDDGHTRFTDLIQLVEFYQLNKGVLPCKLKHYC
# PLCG2(SH2dom.N-term.) = target: T2, PLCG2(SH2dom.N-term.) (Homo sapiens, UniProt P16885)
# T2 construct: SH2dom.N-term. denotes SH2 domain closest to N-terminus of protein; made in house; host or cells: HEK293 (transient transfection, unpurified extract)
# T2 sequence (P16885 532-635 limits assumed): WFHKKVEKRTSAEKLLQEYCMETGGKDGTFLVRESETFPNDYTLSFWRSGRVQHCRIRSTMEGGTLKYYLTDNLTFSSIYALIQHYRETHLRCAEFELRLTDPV
# CRK = target: T3, CRK (Homo sapiens, UniProt P46108)
# T3 construct: the DNA-tagged SH2 domain concentrations used in this study were <0.1 nM; made in house; host or cells: HEK293 (transient transfection; unpurified extract)
# CSK = target: T4, CSK (Homo sapiens, UniProt P41240)
# T4 construct: the DNA-tagged SH2 domain concentrations used in this study were <0.1 nM; made in house; host or cells: HEK293 (transient transfection; unpurified extract)
# T4 sequence (P41240 82-171 limits assumed): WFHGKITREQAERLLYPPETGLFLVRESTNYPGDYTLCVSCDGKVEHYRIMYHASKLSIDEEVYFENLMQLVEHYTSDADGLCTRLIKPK
# SHIP1 = target: T5, SHIP1 (Homo sapiens, UniProt Q92835)
# T5 construct: made in house; host or cells: HEK293 (transient transfection), unpurified extract
# T5 sequence (Q92835 1-1189): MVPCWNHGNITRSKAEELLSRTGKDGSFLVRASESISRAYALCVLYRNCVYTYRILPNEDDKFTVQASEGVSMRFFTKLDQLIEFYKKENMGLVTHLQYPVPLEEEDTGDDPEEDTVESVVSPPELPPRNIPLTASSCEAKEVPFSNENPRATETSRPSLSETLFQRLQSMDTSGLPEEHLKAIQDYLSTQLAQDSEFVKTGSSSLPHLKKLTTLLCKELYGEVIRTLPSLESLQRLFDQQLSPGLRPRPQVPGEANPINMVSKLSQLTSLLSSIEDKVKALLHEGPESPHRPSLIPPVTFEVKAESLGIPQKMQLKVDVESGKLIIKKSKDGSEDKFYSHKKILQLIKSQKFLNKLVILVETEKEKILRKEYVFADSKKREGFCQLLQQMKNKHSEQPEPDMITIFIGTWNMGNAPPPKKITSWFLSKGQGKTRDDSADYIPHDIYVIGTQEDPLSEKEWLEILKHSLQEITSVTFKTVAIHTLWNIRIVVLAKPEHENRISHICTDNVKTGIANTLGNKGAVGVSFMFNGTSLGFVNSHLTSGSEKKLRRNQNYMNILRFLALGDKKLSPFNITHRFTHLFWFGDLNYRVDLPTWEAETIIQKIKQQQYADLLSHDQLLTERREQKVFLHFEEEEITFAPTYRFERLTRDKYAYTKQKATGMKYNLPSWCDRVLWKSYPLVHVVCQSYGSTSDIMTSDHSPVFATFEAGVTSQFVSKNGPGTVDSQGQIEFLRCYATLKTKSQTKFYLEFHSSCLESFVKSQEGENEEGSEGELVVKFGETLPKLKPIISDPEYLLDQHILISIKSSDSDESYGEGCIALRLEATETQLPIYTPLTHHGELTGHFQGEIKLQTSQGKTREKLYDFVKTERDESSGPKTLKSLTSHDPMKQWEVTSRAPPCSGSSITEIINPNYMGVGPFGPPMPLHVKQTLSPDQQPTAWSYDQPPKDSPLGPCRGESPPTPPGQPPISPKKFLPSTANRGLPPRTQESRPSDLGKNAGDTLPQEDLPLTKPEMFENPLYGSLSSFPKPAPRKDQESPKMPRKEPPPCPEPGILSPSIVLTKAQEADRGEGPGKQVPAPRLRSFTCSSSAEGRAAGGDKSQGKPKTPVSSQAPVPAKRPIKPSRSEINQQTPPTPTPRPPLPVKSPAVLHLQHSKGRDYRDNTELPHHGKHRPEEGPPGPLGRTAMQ
# SHIP2 = target: T6, SHIP2 (Homo sapiens, UniProt O15357)
# T6 construct: made in house; host or cells: HEK293 (transient transfection), unpurified extract
# T6 sequence (O15357 1-1258): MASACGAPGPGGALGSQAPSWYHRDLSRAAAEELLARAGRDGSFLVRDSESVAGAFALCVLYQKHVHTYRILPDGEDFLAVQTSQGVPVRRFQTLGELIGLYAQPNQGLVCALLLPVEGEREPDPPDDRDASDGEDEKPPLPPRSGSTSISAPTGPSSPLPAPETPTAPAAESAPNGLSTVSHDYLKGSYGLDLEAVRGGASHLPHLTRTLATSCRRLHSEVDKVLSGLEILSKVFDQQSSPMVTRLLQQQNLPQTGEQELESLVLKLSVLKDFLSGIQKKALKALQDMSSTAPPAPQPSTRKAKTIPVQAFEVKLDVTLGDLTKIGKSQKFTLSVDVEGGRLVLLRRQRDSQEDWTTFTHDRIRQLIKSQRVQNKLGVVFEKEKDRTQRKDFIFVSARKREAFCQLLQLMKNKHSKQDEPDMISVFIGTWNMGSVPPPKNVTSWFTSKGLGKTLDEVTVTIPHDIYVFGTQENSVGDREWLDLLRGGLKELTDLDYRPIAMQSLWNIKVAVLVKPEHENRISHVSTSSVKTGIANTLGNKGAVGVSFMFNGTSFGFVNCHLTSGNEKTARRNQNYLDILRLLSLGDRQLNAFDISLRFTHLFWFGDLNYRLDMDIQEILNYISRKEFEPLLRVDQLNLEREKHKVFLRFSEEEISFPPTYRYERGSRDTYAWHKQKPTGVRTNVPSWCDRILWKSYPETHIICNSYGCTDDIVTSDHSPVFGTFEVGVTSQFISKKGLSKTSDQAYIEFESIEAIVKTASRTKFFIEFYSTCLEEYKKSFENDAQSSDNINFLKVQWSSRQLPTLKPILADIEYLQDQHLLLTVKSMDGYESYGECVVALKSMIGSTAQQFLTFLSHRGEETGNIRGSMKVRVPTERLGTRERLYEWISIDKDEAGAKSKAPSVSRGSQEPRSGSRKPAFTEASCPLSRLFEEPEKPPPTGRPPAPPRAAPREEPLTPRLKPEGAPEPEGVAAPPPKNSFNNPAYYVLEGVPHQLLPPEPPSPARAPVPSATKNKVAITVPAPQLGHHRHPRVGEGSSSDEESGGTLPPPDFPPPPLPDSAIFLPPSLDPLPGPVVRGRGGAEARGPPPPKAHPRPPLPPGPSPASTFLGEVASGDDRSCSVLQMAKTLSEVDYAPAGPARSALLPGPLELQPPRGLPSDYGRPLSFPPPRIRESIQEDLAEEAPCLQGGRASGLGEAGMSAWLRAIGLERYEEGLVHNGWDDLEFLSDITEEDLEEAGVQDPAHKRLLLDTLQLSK
# LNK (SH2B3) = target: T7, LNK (SH2B3) (Homo sapiens, UniProt Q9UQQ2)
# T7 construct: the DNA-tagged SH2 domain concentrations used in this study were <0.1 nM; made in house; host or cells: HEK293 (transient transfection, unpurified extract)
# GRB7 = target: T8, GRB7 (Homo sapiens, UniProt Q14451)
# T8 construct: the DNA-tagged SH2 domain concentrations used in this study were <0.1 nM; made in house; host or cells: HEK293 (transient transfection; unpurified extract)
# ABL2 = target: T9, ABL2 (Homo sapiens, UniProt P42684)
# T9 construct: the DNA-tagged SH2 domain concentrations used in this study were <0.1 nM; made in house; host or cells: HEK293 (transient transfection; unpurified extract)
# T9 sequence (P42684 173-263 limits assumed): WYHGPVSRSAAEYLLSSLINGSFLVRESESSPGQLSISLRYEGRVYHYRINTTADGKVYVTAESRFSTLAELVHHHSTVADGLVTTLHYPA
# PLCG1(SH2dom.N-term.) = target: T10, PLCG1(SH2dom.N-term.) (Homo sapiens, UniProt P19174)
# T10 construct: SH2dom.N-term. denotes SH2 domain closest to N-terminus of protein; made in house; host or cells: HEK293 (transient transfection, unpurified extract)
# T10 sequence (P19174 550-657 limits assumed): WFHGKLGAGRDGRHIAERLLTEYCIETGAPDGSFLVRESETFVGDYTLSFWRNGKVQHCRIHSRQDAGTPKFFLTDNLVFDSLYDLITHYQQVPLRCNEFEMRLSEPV
# FES = target: T11, FES (Homo sapiens, UniProt P07332)
# T11 construct: the DNA-tagged SH2 domain concentrations used in this study were <0.1 nM; made in house; host or cells: HEK293 (transient transfection; unpurified extract)
# T11 sequence (P07332 460-549 limits assumed): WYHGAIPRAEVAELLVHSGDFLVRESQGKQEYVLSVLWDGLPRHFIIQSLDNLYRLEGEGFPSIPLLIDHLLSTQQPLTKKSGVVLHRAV
# T3 sequence (P46108 13-118 limits assumed): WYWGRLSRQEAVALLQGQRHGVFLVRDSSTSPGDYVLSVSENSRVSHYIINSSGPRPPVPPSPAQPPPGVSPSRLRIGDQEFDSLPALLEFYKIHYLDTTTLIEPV
# T8 sequence (Q14451 431-527 limits assumed): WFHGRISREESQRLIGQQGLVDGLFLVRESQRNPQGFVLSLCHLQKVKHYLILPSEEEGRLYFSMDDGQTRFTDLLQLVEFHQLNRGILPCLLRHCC
# T7 sequence (Q9UQQ2 364-462 limits assumed): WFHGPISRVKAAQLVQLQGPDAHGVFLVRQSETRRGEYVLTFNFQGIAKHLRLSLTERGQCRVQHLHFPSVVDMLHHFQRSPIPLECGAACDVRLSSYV
smiles,measurement,setting,value
CSCC[C@H](NC(=O)[C@@H](NC(=O)[C@H](CCC(=O)O)NC(=O)[C@H](Cc1ccc(OP(=O)(O)O)cc1)NC(=O)[C@H](CC(C)C)NC(=O)[C@@H]1CCCN1C(=O)[C@H](CC(=O)O)NC(=O)[C@@H]1CCCN1C(C)=O)C(C)C)C(=O)N[C@@H](CC(C)C)C(=O)N[C@@H](CCCCN)C(=O)N[C@@H](CS)C(=O)N[C@@H](Cc1c[nH]c2ccccc12)C(=O)N[C@@H](CC(=O)O)C(N)=O (Ac-PDPL[pY]EVMLKCWD-NH2),Kd,GRB14,298 ± 131 nM
CC[C@H](C)[C@H](NC(=O)[C@@H](NC(=O)[C@H](CC(C)C)NC(=O)[C@H](Cc1ccc(OP(=O)(O)O)cc1)NC(=O)[C@H](CCCNC(=N)N)NC(=O)[C@H](CCC(N)=O)NC(=O)[C@@H]1CCCN1C(=O)[C@H](CC(=O)O)NC(C)=O)C(C)C)C(=O)N[C@@H](CCC(N)=O)C(=O)NCC(=O)N[C@@H](CC(=O)O)C(=O)N[C@@H](CCC(=O)O)C(=O)N[C@@H](CC(=O)O)C(N)=O [Ac-DPQRpYLVIQGDED-NH2] (Ac-DPQR[pY]LVIQGDED-NH2),Kd,PLCG2(SH2dom.N-term.),521 ± 25.4 nM
CC(=O)N[C@@H](CCC(=O)O)C(=O)N1CCC[C@H]1C(=O)N[C@@H](C)C(=O)N[C@@H](Cc1c[nH]cn1)C(=O)N[C@@H](C)C(=O)N[C@@H](Cc1ccc(OP(=O)(O)O)cc1)C(=O)N[C@@H](C)C(=O)N[C@@H](CCC(N)=O)C(=O)N1CCC[C@H]1C(=O)N[C@@H](CCC(N)=O)C(=O)N[C@H](C(=O)N[C@H](C(N)=O)[C@@H](C)O)[C@@H](C)O [Ac-EPAHApYAQPQTT-NH2] (Ac-EPAHA[pY]AQPQTT-NH2),Kd,CRK,1520 ± 695 nM
CC[C@H](C)[C@H](NC(C)=O)C(=O)N[C@@H](CO)C(=O)N[C@@H](C)C(=O)N[C@@H](CCSC)C(=O)N[C@@H](Cc1ccc(OP(=O)(O)O)cc1)C(=O)N[C@@H](CO)C(=O)N[C@@H](CO)C(=O)N[C@H](C(=O)N[C@@H](CCSC)C(=O)N[C@@H](CCCCN)C(N)=O)C(C)C [Ac-ISAMpYSSVMK-NH2] (Ac-ISAM[pY]SSVMK-NH2),Kd,CSK,48.3 ± 8.04 nM
CC(=O)N[C@@H](CC(N)=O)C(=O)N[C@@H](CC(N)=O)C(=O)N[C@H](C(=O)N[C@@H](C)C(=O)N[C@@H](Cc1ccc(OP(=O)(O)O)cc1)C(=O)N[C@@H](CO)C(=O)N[C@@H](Cc1ccc(O)cc1)C(=O)N[C@@H](CC(C)C)C(=O)N[C@@H](CC(C)C)C(=O)N[C@@H](CC(N)=O)C(=O)N[C@@H](CCCNC(=N)N)C(N)=O)C(C)C [Ac-NNVApYSYLLNR-NH2] (Ac-NNVA[pY]SYLLNR-NH2),Kd,SHIP1,241 ± 71.8 nM
same,Kd,SHIP2,3310 ± 622 nM
CC(=O)N[C@@H](CC(N)=O)C(=O)N[C@H](C(=O)NCC(=O)N[C@@H](CC(=O)O)C(=O)N[C@@H](Cc1ccc(OP(=O)(O)O)cc1)C(=O)N[C@@H](Cc1ccc(O)cc1)C(=O)N[C@@H](CC(=O)O)C(=O)N[C@@H](CC(C)C)C(=O)N[C@@H](Cc1ccc(O)cc1)C(=O)NCC(N)=O)[C@@H](C)O [Ac-NTGDpYYDLYG-NH2] (Ac-NTGD[pY]YDLYG-NH2),Kd,LNK (SH2B3),3220 ± 595 nM
CC(=O)N1CCC[C@H]1C(=O)N[C@@H](CCC(=O)O)C(=O)N[C@@H](Cc1ccc(OP(=O)(O)O)cc1)C(=O)N[C@H](C(=O)N[C@@H](CC(N)=O)C(=O)N[C@@H](CCC(N)=O)C(N)=O)C(C)C [Ac-PEpYVNQ-NH2] (Ac-PE[pY]VNQ-NH2),Kd,GRB7,4470 ± 557 nM
CC[C@H](C)[C@H](NC(=O)[C@@H]1CCCN1C(=O)[C@H](CO)NC(=O)[C@H](CO)NC(C)=O)C(=O)N[C@@H](Cc1ccc(OP(=O)(O)O)cc1)C(=O)N[C@@H](CCC(=O)O)C(=O)N[C@@H](CC(=O)O)C(=O)N[C@@H](C)C(=O)N[C@@H](C)C(N)=O [Ac-SSPIpYEDAA-NH2] (Ac-SSPI[pY]EDAA-NH2),Kd,ABL2,6200 ± 584 nM
CSCC[C@H](NC(=O)[C@H](CO)NC(=O)[C@H](CC(C)C)NC(=O)[C@H](CC(=O)O)NC(=O)[C@H](CC(C)C)NC(=O)[C@H](Cc1ccc(OP(=O)(O)O)cc1)NC(=O)[C@H](CCC(=O)O)NC(=O)[C@H](CCC(N)=O)NC(=O)[C@H](CC(N)=O)NC(=O)[C@H](CO)NC(=O)[C@@H](NC(C)=O)[C@@H](C)O)C(N)=O [Ac-TSNQEpYLDLSM-NH2] (Ac-TSNQE[pY]LDLSM-NH2),Kd,PLCG1(SH2dom.N-term.),116 ± 6.69 nM
CC(=O)N[C@H](C(=O)N[C@@H](Cc1ccc(OP(=O)(O)O)cc1)C(=O)N[C@@H](CCC(=O)O)C(=O)N1CCC[C@H]1C(=O)N[C@H](C(=O)N[C@@H](CO)C(=O)N[C@@H](Cc1ccc(O)cc1)C(N)=O)C(C)C)C(C)C [Ac-VpYEPVSY-NH2] (Ac-V[pY]EPVSY-NH2),Kd,FES,711 ± 170 nM
